# Several values for one entry are separate records, joined by “and”; a condition that tells them apart may be missing. Equal values may be shown once.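 All cell lines were grown in 96-well plates and treated with compound for 48 hours. GI50 is the concentration that inhibits growth by half. TGI denotes the concentration required for complete inhibition of growth.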
# Columns and labels:
# Assay in all cases: NCI tumour cell line growth inhibition, 48 h
# SN12C renal = tested on: SN12C renal
# SW-620 colon = tested on: SW-620 colon
# RPMI-8226 leukemia = tested on: RPMI-8226 leukemia
# OVCAR-4 ovarian = tested on: OVCAR-4 ovarian
# CCRF-CEM leukemia = tested on: CCRF-CEM leukemia
# NCI-H23 lung = tested on: NCI-H23 lung
# A549 NSCLC = tested on: A549 NSCLC
# U251 CNS = tested on: U251 CNS
# HL-60(TB) leukemia = tested on: HL-60(TB) leukemia
# NCI-H522 lung = tested on: NCI-H522 lung
SMILES,GI50 (SN12C renal),TGI (SN12C renal),GI50 (SW-620 colon),TGI (SW-620 colon),GI50 (RPMI-8226 leukemia),TGI (RPMI-8226 leukemia),GI50 (OVCAR-4 ovarian),TGI (OVCAR-4 ovarian),GI50 (CCRF-CEM leukemia),TGI (CCRF-CEM leukemia),GI50 (NCI-H23 lung),TGI (NCI-H23 lung),TGI (A549 NSCLC),TGI (U251 CNS),TGI (HL-60(TB) leukemia),GI50 (A549 NSCLC),GI50 (U251 CNS),GI50 (NCI-H522 lung),TGI (NCI-H522 lung),GI50 (HL-60(TB) leukemia)
COc1ccc(C(=O)c2cc(OC)c(OC)c(OC)c2)cc1/C=C/C(=O)c1ccc(OC)c(OC)c1,1.65 µM,> 100 µM,0.321 µM,> 100 µM,0.587 µM,11.8 µM,1.95 µM,> 100 µM,0.465 µM,13.3 µM,4.13 µM,> 100 µM,–,–,–,–,–,–,–,–
CCOC(=O)C1C2CCC(C2)C1(CCl)C(=O)OCC (stereo not drawn),–,> 100 µM,–,> 100 µM,–,> 100 µM,–,> 100 µM,–,> 100 µM,–,> 100 µM,> 100 µM,> 100 µM,> 100 µM,–,–,–,–,–
CC1COc2c(N3CCN(C)CC3)c(F)cc3c(=O)c(C(=O)O)cn1c23 (stereo not drawn),> 100 µM,> 100 µM,> 100 µM,> 100 µM,> 100 µM,> 100 µM,> 100 µM,> 100 µM,> 100 µM,> 100 µM,> 100 µM,> 100 µM,> 100 µM,> 100 µM,–,> 100 µM,> 100 µM,> 100 µM,> 100 µM,–
N#Cc1c2c(c(N=P(c3ccccc3)(c3ccccc3)c3ccccc3)n3c1nc1ccccc13)CCCC2,–,39.6 µM,–,> 100 µM,–,61.6 µM,–,> 100 µM,–,57.7 µM,–,–,> 100 µM,77.9 µM,24.8 µM,–,–,–,41.8 µM,–
CN(C)c1ccc(N=C2C=CC(=[N+](C)C)C=C2)cc1,13.7 µM,> 100 µM,6.6 µM,26.2 µM,3.2 µM,11.4 µM,7.52 µM,21.8 µM,–,–,3.52 µM,29.4 µM,> 100 µM,15.4 µM,–,5.21 µM,3.65 µM,1.79 µM,4.95 µM,–
CC(/C(=N\Nc1ccccc1)c1ccc(O)cc1)C1C(=O)Oc2ccccc21 (stereo not drawn),–,> 100 µM,–,> 100 µM,–,> 100 µM,–,> 100 µM,–,> 100 µM,–,–,> 100 µM,> 100 µM,> 100 µM,–,–,–,–,–
Cc1ccc(-c2cc3c(SCC(=O)Nc4cc(C(F)(F)F)ccc4Cl)nccn3n2)cc1,> 100 µM,> 100 µM,> 100 µM,> 100 µM,> 100 µM,> 100 µM,2.86 µM,> 100 µM,–,–,> 100 µM,> 100 µM,–,> 100 µM,> 100 µM,–,3.4 µM,–,–,> 100 µM
CCN(CC)CCOc1ccccc1/C=C/c1noc2ccccc12,–,24.6 µM,–,23 µM,–,–,–,50.7 µM,–,81.6 µM,–,26.9 µM,–,–,40.1 µM,–,–,–,22.2 µM,–
NC(N)=N/N=C/c1c(-c2cc(Cl)sc2Cl)nc2sccn12,0.642 µM,1.41 µM,1 µM,2.43 µM,0.744 µM,1.61 µM,–,–,0.807 µM,1.68 µM,7.5 µM,14.9 µM,11.3 µM,1.56 µM,–,2.17 µM,0.799 µM,1.76 µM,> 50 µM,–
C=C(C)[C@@H]1CC[C@]2(C(=O)O)CC[C@]3(C)[C@H](CC[C@@H]4[C@@]5(C)C[C@@H](CC#Cc6ccc(C(F)(F)F)cc6)[C@H](O)C(C)(C)[C@@H]5CC[C@]43C)[C@@H]12,–,–,–,–,4.01 µM,> 100 µM,–,–,2.98 µM,> 100 µM,–,–,–,4.75 µM,> 100 µM,–,1.98 µM,–,–,6.2 µM
O=C1c2ccccc2S(=O)(=O)N1CSC(=S)N1CCCCC1,> 46.5 µM,> 100 µM,> 100 µM,> 100 µM,0.205 µM,0.607 µM,> 100 µM,> 100 µM,–,–,> 100 µM,> 100 µM,> 100 µM,> 100 µM,> 100 µM,> 100 µM,> 100 µM,2.05 µM,> 100 µM,0.0329 µM
Cc1ccc2ncnc(N(CC(C)C)CC(C)C)c2c1,17.9 µM,38.7 µM,–,–,1.61 µM,5.13 µM,19 µM,52.6 µM,6.55 µM,41.7 µM,11.1 µM,28.5 µM,25.3 µM,33.3 µM,–,9.43 µM,16.5 µM,18.9 µM,> 100 µM,–
CC1=CC(=C(c2ccc(N)cc2)c2ccc(N)cc2)C=CC1=N,0.422 µM and 0.456 µM,13.5 µM and 10 µM and 69.3 µM,0.668 µM and 3.25 µM,11.8 µM and 38.8 µM and 16 µM,–,–,2.51 µM and 5.01 µM,14.3 µM and > 55.2 µM and 71.6 µM,0.626 µM,8.16 µM and 31.3 µM,0.828 µM,4.97 µM and 16.2 µM and 16.4 µM,20.1 µM and 50.6 µM and 15.9 µM,5.38 µM and > 36 µM and 13 µM,3.51 µM and > 21.6 µM,2.68 µM,0.316 µM and 0.455 µM and 0.538 µM,1.8 µM and 2.26 µM,17.8 µM and 7.03 µM,0.482 µM
CCCCCCCCOCC(O)COC(=O)CCCCCCC (stereo not drawn),–,> 100 µM,–,> 100 µM,–,> 100 µM,–,> 100 µM,–,35.7 µM,–,> 100 µM,> 100 µM,> 100 µM,93.9 µM,–,–,–,–,–
COC(=O)C(=O)C(C(=O)C(=O)Nc1nc2ccc(C)cc2s1)c1nc2ccc([N+](=O)[O-])cc2[nH]c1=O (stereo not drawn),–,> 100 µM,–,> 100 µM,–,> 100 µM,–,–,–,> 100 µM,–,> 100 µM,> 100 µM,> 100 µM,> 100 µM,–,–,–,> 100 µM,–
COc1ccc2c(c1)[n+](=O)c(C(=O)c1ccco1)c(C(F)(F)F)n2[O-],3.01 µM,11.8 µM,3.53 µM,34.5 µM,1.62 µM,22.1 µM,–,–,–,–,2.02 µM,5.05 µM,16.6 µM,8.67 µM,> 100 µM,2.56 µM,2.04 µM,35.6 µM,> 100 µM,3.29 µM

# — PubChem BioAssay (NCI)
